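A five-concentration, 48-hour dose response in 96-well plates underlies each endpoint, interpolated linearly between surrounding concentrations. Here, GI50 denotes the concentration required for 50% inhibition of growth.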 Active and inactive are the calls of the source. Cut-off read from the data, not from the text of the source: active = GI50 up to about 1.1 µM and inactive = higher.
Legend:
Assay in all cases: NCI-60 cell line screen, 48 h
NCI-H23 = system: NCI-H23
SW-620 = system: SW-620
A549 = system: A549
SK-OV-3 = system: SK-OV-3
SK-MEL-2 = system: SK-MEL-2
CAKI-1 = system: CAKI-1
UO-31 = system: UO-31
HL-60 = system: HL-60
786-0 = system: 786-0
PC-3 = system: PC-3
DU-145 = system: DU-145
NCI/ADR-RES = system: NCI/ADR-RES
HT-29 = system: HT-29
HOP-62 = system: HOP-62
NCI-H522 = system: NCI-H522
ACHN = system: ACHN
Hs-578T = system: Hs-578T
SK-MEL-28 = system: SK-MEL-28
SF-539 = system: SF-539

Measured: GI50

CC1(C)O[C@@H]2[C@@H]3OC(=O)C[C@@H]3[C@@H](COCc3ccccc3)[C@@H]2O1
inactive: NCI-H23 > 100 µM | SW-620 > 100 µM | A549 > 100 µM | SK-OV-3 > 100 µM | SK-MEL-2 > 100 µM | CAKI-1 > 100 µM | UO-31 > 100 µM | HL-60 > 100 µM | 786-0 > 100 µM | PC-3 > 100 µM | DU-145 > 100 µM | NCI/ADR-RES > 100 µM | HT-29 > 100 µM | HOP-62 > 100 µM | NCI-H522 > 100 µM | ACHN > 100 µM | Hs-578T > 100 µM | SK-MEL-28 > 100 µM | SF-539 > 100 µM

CSCCCNC(=O)c1csc(-c2csc(CCNC(=O)CNC(=O)CNC(=O)OC(C)(C)C)n2)n1
inactive: NCI-H23 > 100 µM | SW-620 > 100 µM | A549 > 100 µM | SK-OV-3 > 100 µM | SK-MEL-2 > 100 µM | CAKI-1 > 100 µM | UO-31 > 100 µM | HL-60 > 100 µM | 786-0 > 100 µM | PC-3 > 100 µM | DU-145 > 100 µM | NCI/ADR-RES > 100 µM | HT-29 > 100 µM | HOP-62 > 100 µM | NCI-H522 > 100 µM | ACHN > 100 µM | Hs-578T > 100 µM | SK-MEL-28 > 100 µM | SF-539 > 100 µM

CCCCCCCCCCNC(=O)CCC(NC(=O)c1ccc(N(C)Cc2cnc3nc(N)nc(N)c3n2)cc1)C(=O)NCCCCCCCCCC (stereo not drawn)
inactive: NCI-H23 14.7 µM | SW-620 3.13 µM | A549 28.6 µM | SK-OV-3 27.8 µM | SK-MEL-2 13.6 µM | CAKI-1 > 100 µM | UO-31 74.3 µM | HL-60 3.4 µM | 786-0 3.05 µM | PC-3 5.62 µM | DU-145 20.1 µM | NCI/ADR-RES > 90.6 µM | HT-29 10.5 µM | HOP-62 31.8 µM | NCI-H522 4.43 µM | ACHN 44.7 µM | Hs-578T 3.09 µM | SK-MEL-28 8.79 µM | SF-539 5.13 µM

Cc1ccc2c(c1)C(=O)C(C1OC(=O)c3ccccc31)C2 (stereo not drawn)
inactive: NCI-H23 > 100 µM | SW-620 > 100 µM | A549 > 100 µM | SK-OV-3 > 100 µM | SK-MEL-2 > 100 µM | CAKI-1 > 100 µM | UO-31 > 100 µM | HL-60 64.7 µM | 786-0 > 100 µM | PC-3 93.5 µM | DU-145 > 100 µM | NCI/ADR-RES 33.7 µM | HT-29 29.2 µM | HOP-62 > 100 µM | NCI-H522 83.4 µM | ACHN 83.8 µM | Hs-578T 69.5 µM | SK-MEL-28 > 100 µM | SF-539 52 µM

Brc1ccc2[nH]cc(-c3csc(-c4c[nH]c5ccccc45)n3)c2c1
inactive: NCI-H23 2.39 µM | SW-620 2.75 µM | A549 3.67 µM | SK-OV-3 7.52 µM | SK-MEL-2 3.17 µM | CAKI-1 2.9 µM | UO-31 2.93 µM | HL-60 5.64 µM | 786-0 2.37 µM | PC-3 3.54 µM | DU-145 3.52 µM | NCI/ADR-RES 2.75 µM | HT-29 1.8 µM | HOP-62 4.34 µM | NCI-H522 1.81 µM | ACHN 5.5 µM | Hs-578T 4.81 µM | SK-MEL-28 5.06 µM | SF-539 4.72 µM

OC(NN=C1CCCC1)(C(F)(F)Cl)C(F)(F)Cl
inactive: NCI-H23 > 10 µM | SW-620 > 10 µM | A549 > 10 µM | SK-OV-3 > 10 µM | SK-MEL-2 > 10 µM | CAKI-1 > 10 µM | HL-60 > 10 µM | 786-0 > 10 µM | PC-3 > 10 µM | DU-145 > 10 µM | NCI/ADR-RES > 10 µM | HT-29 > 10 µM | HOP-62 > 10 µM | NCI-H522 > 10 µM | ACHN > 10 µM | Hs-578T > 10 µM | SK-MEL-28 > 10 µM | SF-539 > 10 µM

C[C@@]12C[C@@H](c3ccccc3O1)N1CCCSC1=N2
inactive: NCI-H23 > 100 µM | SW-620 > 100 µM | SK-OV-3 > 100 µM | SK-MEL-2 > 100 µM | CAKI-1 > 100 µM | UO-31 > 100 µM | HL-60 > 100 µM | 786-0 > 100 µM | PC-3 > 100 µM | DU-145 > 100 µM | NCI/ADR-RES > 100 µM | HT-29 > 100 µM | HOP-62 > 100 µM | NCI-H522 > 100 µM | ACHN > 100 µM | Hs-578T > 100 µM | SK-MEL-28 > 100 µM | SF-539 > 100 µM

CN(CC(=O)O)c1ncc2c(n1)-c1ccccc1CC2
inactive: NCI-H23 > 100 µM | SW-620 > 100 µM | A549 > 100 µM | SK-OV-3 > 100 µM | SK-MEL-2 > 100 µM | CAKI-1 > 100 µM | UO-31 > 100 µM | HL-60 > 100 µM | 786-0 > 100 µM | PC-3 > 100 µM | DU-145 > 100 µM | NCI/ADR-RES > 100 µM | HT-29 > 100 µM | HOP-62 > 100 µM | NCI-H522 > 100 µM | ACHN > 100 µM | Hs-578T > 100 µM | SK-MEL-28 > 100 µM | SF-539 > 100 µM

Cc1ccc(/N=N\c2c(O)ccc3cc(S(=O)(=O)O)ccc23)cc1
inactive: NCI-H23 > 100 µM | SW-620 > 100 µM | A549 > 100 µM | SK-OV-3 > 100 µM | SK-MEL-2 > 100 µM | CAKI-1 > 100 µM | UO-31 > 100 µM | HL-60 > 100 µM | 786-0 > 100 µM | PC-3 > 100 µM | DU-145 > 100 µM | NCI/ADR-RES > 100 µM | HT-29 > 100 µM | HOP-62 > 100 µM | NCI-H522 > 100 µM | ACHN > 100 µM | Hs-578T > 100 µM | SK-MEL-28 > 100 µM | SF-539 > 100 µM

Brc1ccc2[nH]cc(-c3csc(-c4c[nH]c5ccc(Br)cc45)n3)c2c1
inactive: NCI-H23 2.27 µM | SW-620 1.84 µM | A549 2.69 µM | SK-OV-3 2.5 µM | SK-MEL-2 1.9 µM | CAKI-1 1.95 µM | UO-31 2.42 µM | HL-60 3.24 µM | 786-0 1.8 µM | PC-3 1.97 µM | DU-145 2.52 µM | NCI/ADR-RES 2.21 µM | HT-29 1.7 µM | HOP-62 3.25 µM | NCI-H522 1.66 µM | ACHN 1.93 µM | Hs-578T 3.79 µM | SK-MEL-28 2.11 µM | SF-539 1.56 µM

Oc1ccc(Br)cc1/C=N/C1CCCCC1
inactive: NCI-H23 34.4 µM | SW-620 24.8 µM | A549 > 100 µM | SK-OV-3 55.3 µM | SK-MEL-2 25.1 µM | CAKI-1 > 100 µM | UO-31 33.8 µM | HL-60 4.81 µM | 786-0 22.9 µM | PC-3 15.2 µM | DU-145 21.4 µM | NCI/ADR-RES 38.7 µM | HT-29 42.3 µM | HOP-62 45.4 µM | NCI-H522 55.3 µM | ACHN 65.5 µM | Hs-578T 37.7 µM | SK-MEL-28 43.3 µM | SF-539 38.7 µM

COc1ccc(C2=Nn3c(nnc(Cc4ccc(Cl)cc4)c3=O)SC2)cc1
inactive: NCI-H23 35.4 µM | SW-620 47.4 µM | A549 51.3 µM | SK-OV-3 55.3 µM | SK-MEL-2 26.5 µM | CAKI-1 38.7 µM | UO-31 52.1 µM | HL-60 32.8 µM | 786-0 45 µM | PC-3 42.9 µM | DU-145 59.3 µM | NCI/ADR-RES 19.8 µM | HT-29 30.4 µM | HOP-62 62.1 µM | NCI-H522 42.4 µM | ACHN 64.7 µM | Hs-578T 63.5 µM | SK-MEL-28 74.6 µM | SF-539 37.8 µM

C=CCSC1=N/C(=C\c2ccccc2)C(=O)N1CC=C
inactive: NCI-H23 56 µM | SW-620 49.7 µM | A549 44.6 µM | SK-OV-3 > 71.6 µM | SK-MEL-2 29.6 µM | CAKI-1 60.5 µM | UO-31 40.5 µM | HL-60 5.24 µM | 786-0 31.7 µM | PC-3 24.8 µM | DU-145 > 86.5 µM | NCI/ADR-RES 45.1 µM | HT-29 23.6 µM | HOP-62 99.1 µM | NCI-H522 31.2 µM | ACHN 41.8 µM | Hs-578T 43 µM | SK-MEL-28 > 83.8 µM | SF-539 84.1 µM

CN(NC1=NCCO1)c1ccc2ccccc2c1
inactive: NCI-H23 32.1 µM | SW-620 34.1 µM | A549 60.3 µM | SK-OV-3 39.1 µM | SK-MEL-2 27.8 µM | CAKI-1 32.9 µM | UO-31 69.5 µM | HL-60 26.9 µM | 786-0 54.6 µM | PC-3 40.3 µM | DU-145 > 100 µM | NCI/ADR-RES 33.2 µM | HT-29 41.1 µM | HOP-62 80.7 µM | NCI-H522 29.9 µM | ACHN 62.8 µM | Hs-578T 35.2 µM | SK-MEL-28 70.3 µM | SF-539 23.6 µM

COC(=O)C(Cc1ccccc1)NC(=O)C(CCC(=O)OCc1ccccc1)NC(=O)OC(C)(C)C (stereo not drawn)
inactive: NCI-H23 > 100 µM | SW-620 63.8 µM | A549 > 100 µM | SK-OV-3 > 100 µM | SK-MEL-2 > 100 µM | CAKI-1 > 100 µM | UO-31 26.1 µM | HL-60 54.8 µM | 786-0 > 100 µM | PC-3 81.7 µM | DU-145 > 100 µM | NCI/ADR-RES > 100 µM | HT-29 35.6 µM | HOP-62 > 100 µM | NCI-H522 30.4 µM | ACHN 68.9 µM | Hs-578T > 100 µM | SK-MEL-28 > 100 µM | SF-539 > 100 µM
